In patent US20230233569A1 (Revolution Medicines, Inc., priority 2020, published 2023):
Where two headings read alike, the source gives them in different places.

What was measured:
KRAS G12C = KRAS G12C (Homo sapiens, UniProt P01116+P62937, G12C); test: Ras-Raf disruption / FRET / MOA assay (BRAF RBD); format: biochemical; conditions: with Cyclophilin A
Procedure, shortened: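 His6-K-Ras G12C-GMPPNP (12.5 nM), GST-BRAF RBD (50 nM) and tagless Cyclophilin A (25 μM) incubated 3 h at 25 °C with compound (10-point 3-fold series from 30 μM), pH 7.3 HEPES buffer. Anti-His Eu/anti-GST APC added for 1.5 h; decreased TR-FRET ratio vs DMSO gives IC50.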

AsPC-1 (K-Ras G12D) [1] = test: Potency assay: pERK; format: cell-based; conditions: Homo sapiens
NCI-H358 (K-Ras G12C) = test: CellTiter-Glo cell viability assay; format: cell-based; conditions: Homo sapiens, NCI-H358, 120 h
Procedure, shortened: (§1)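 Compounds dispensed directly onto seeded AsPC-1 (K-Ras G12D) or NCI-H358 (K-Ras G12C) cells; CellTiter-Glo luminescence read on day 5 after ~30 min equilibration to room temperature. Signal normalized to DMSO average (%) and fit by four-parameter logistic.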

AsPC-1 (K-Ras G12D) [2] = test: CellTiter-Glo cell viability assay; format: cell-based; conditions: Homo sapiens, ASPC1, 120 h
Procedure, shortened: as §1

KRAS G12D = KRAS G12D (Homo sapiens, UniProt P01116+P62937, G12D); test: Ras-Raf disruption / FRET / MOA assay (BRAF RBD); format: biochemical; conditions: with Cyclophilin A
Procedure, shortened: (§2)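 TR-FRET in 25 mM HEPES pH 7.3, 100 mM NaCl, 5 mM MgCl2, 0.1% BSA, 0.002% Tween20 with 25 μM Cyclophilin A, 12.5 nM His6-Ras-GMPPNP, 50 nM GST-BRAF RBD; compound 10-point 3-fold series from 30 μM. After 3 h at 25 °C, Eu anti-His/APC anti-GST added for 1.5 h; IC50 from ratio decrease versus DMSO.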

KRAS WT = KRAS WT (Homo sapiens, UniProt P01116+P62937); test: Ras-Raf disruption / FRET / MOA assay (BRAF RBD); format: biochemical; conditions: with Cyclophilin A
Procedure, shortened: as §2

KRAS G12S = KRAS G12S (Homo sapiens, UniProt P01116+P62937, G12S); test: Ras-Raf disruption / FRET / MOA assay (BRAF RBD); format: biochemical; conditions: with Cyclophilin A
Procedure, shortened: as §2

NRAS G12C = NRAS G12C (Homo sapiens, UniProt P01111+P62937, G12C); test: Ras-Raf disruption / FRET / MOA assay (BRAF RBD); format: biochemical
Procedure, shortened: as §2

KRAS G13D = KRAS G13D (Homo sapiens, UniProt P01116+P62937, G13D); test: Ras-Raf disruption / FRET / MOA assay (BRAF RBD); format: biochemical; conditions: with Cyclophilin A
Procedure, shortened: as §2

KRAS G12V = KRAS G12V (Homo sapiens, UniProt P01116+P62937, G12V); test: Ras-Raf disruption / FRET / MOA assay (BRAF RBD); format: biochemical; conditions: with Cyclophilin A
Procedure, shortened: as §2

KRAS G13C = KRAS G13C (Homo sapiens, UniProt P01116+P62937, G13C); test: Ras-Raf disruption / FRET / MOA assay (BRAF RBD); format: biochemical; conditions: with Cyclophilin A
Procedure, shortened: as §2

[3] = Ras-Raf disruption, read-out: KRAS G12C FRET data IC50
[4] = ASPC1, AsPC-1 KRAS G12D, read-out: pERK EC50
[5] = K-Ras G12C, 5-day treatment, read-out: H358 Cell Viability assay data IC50
[6] = K-Ras G12D, 5-day treatment, read-out: AsPC-1 Cell Viability assay data IC50
[7] = Ras-Raf disruption, read-out: KRAS G12D FRET data IC50
[8] = Ras-Raf disruption, read-out: KRAS WT FRET data IC50
[9] = Ras-Raf disruption, read-out: KRAS G12S FRET data IC50
[10] = NRAS G12C, read-out: NRAS G12C FRET data IC50
[11] = Ras-Raf disruption, read-out: KRAS G13D FRET data IC50
[12] = Ras-Raf disruption, read-out: KRAS G12V FRET data IC50
[13] = Ras-Raf disruption, read-out: KRAS G13C FRET data IC50
[14] = KRAS G12C FRET data IC50, Ras-Raf disruption
[15] = read-out: H358 Cell Viability assay data IC50, K-Ras G12C, 5-day treatment
[16] = read-out: AsPC-1 Cell Viability assay data IC50, K-Ras G12D, 5-day treatment
[17] = KRAS G12D FRET data IC50, Ras-Raf disruption
[18] = KRAS WT FRET data IC50, Ras-Raf disruption
[19] = KRAS G12S FRET data IC50, Ras-Raf disruption
[20] = NRAS G12C FRET data IC50, NRAS G12C
[21] = KRAS G13D FRET data IC50, Ras-Raf disruption
[22] = KRAS G12V FRET data IC50, Ras-Raf disruption
[23] = KRAS G13C FRET data IC50, Ras-Raf disruption

KRAS WT, sequence (P01116 1-169 isoform P01116-2 limits assumed): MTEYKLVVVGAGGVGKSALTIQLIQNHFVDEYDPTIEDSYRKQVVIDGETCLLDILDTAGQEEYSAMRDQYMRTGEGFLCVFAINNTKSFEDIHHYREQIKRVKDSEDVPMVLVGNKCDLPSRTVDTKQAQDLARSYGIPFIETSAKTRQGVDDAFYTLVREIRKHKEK
KRAS WT, sequence (P62937 whole entry): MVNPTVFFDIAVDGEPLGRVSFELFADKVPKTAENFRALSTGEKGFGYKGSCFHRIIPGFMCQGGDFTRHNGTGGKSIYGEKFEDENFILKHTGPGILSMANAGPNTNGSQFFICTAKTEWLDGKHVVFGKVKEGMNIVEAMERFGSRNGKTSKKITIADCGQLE
KRAS G13D, sequence (P01116 1-169 isoform P01116-2 G13D limits assumed): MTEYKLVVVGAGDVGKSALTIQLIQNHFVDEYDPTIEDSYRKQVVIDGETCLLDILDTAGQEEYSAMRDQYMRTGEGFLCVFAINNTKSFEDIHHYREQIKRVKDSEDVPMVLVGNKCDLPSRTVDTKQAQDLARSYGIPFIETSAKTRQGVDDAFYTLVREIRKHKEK
KRAS G13D, sequence (P62937 whole entry): as the sequence (P62937 whole entry) above
NRAS G12C, sequence (P01111 whole entry G12C): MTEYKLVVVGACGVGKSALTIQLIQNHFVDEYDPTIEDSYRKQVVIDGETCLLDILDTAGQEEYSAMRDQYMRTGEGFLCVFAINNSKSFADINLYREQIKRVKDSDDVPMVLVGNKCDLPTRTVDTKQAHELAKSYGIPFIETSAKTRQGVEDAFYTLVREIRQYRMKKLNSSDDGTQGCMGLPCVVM
NRAS G12C, sequence (P62937 whole entry): as the sequence (P62937 whole entry) above
KRAS G12S, sequence (P01116 1-169 isoform P01116-2 G12S limits assumed): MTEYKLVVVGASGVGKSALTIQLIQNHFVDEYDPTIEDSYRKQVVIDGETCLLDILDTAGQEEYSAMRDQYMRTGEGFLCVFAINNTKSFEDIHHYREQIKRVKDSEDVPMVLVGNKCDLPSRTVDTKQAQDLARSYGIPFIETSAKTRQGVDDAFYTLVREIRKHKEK
KRAS G12S, sequence (P62937 whole entry): as the sequence (P62937 whole entry) above
KRAS G12D, sequence (P01116 1-169 isoform P01116-2 G12D limits assumed): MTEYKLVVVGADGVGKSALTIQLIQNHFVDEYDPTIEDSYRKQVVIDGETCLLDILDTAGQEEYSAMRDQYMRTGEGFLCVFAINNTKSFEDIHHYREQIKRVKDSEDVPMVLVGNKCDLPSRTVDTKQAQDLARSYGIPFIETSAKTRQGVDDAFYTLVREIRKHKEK
KRAS G12D, sequence (P62937 whole entry): as the sequence (P62937 whole entry) above
KRAS G13C, sequence (P01116 1-169 isoform P01116-2 G13C limits assumed): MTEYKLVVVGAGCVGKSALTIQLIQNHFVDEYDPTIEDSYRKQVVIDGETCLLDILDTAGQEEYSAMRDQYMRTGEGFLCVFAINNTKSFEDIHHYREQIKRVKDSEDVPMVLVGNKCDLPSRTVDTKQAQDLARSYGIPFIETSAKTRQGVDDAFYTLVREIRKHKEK
KRAS G13C, sequence (P62937 whole entry): as the sequence (P62937 whole entry) above
KRAS G12V, sequence (P01116 1-169 isoform P01116-2 G12V limits assumed): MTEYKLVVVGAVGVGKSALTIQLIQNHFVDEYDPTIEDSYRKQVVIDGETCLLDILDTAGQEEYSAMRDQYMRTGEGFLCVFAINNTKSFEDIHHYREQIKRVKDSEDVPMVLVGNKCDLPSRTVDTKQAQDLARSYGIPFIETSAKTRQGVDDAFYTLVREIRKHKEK
KRAS G12V, sequence (P62937 whole entry): as the sequence (P62937 whole entry) above
KRAS G12C, sequence (P01116 1-169 isoform P01116-2 G12C limits assumed): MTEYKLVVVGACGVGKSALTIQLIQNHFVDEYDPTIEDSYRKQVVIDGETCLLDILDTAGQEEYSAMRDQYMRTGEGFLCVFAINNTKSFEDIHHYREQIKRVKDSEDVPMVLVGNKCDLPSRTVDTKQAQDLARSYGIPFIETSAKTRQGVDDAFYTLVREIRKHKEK
KRAS G12C, sequence (P62937 whole entry): as the sequence (P62937 whole entry) above

| Compound | IC50 (KRAS G12C; [3]) | EC50 (AsPC-1 (K-Ras G12D) [1]; [4]) | IC50 (NCI-H358 (K-Ras G12C); [5]) | IC50 (AsPC-1 (K-Ras G12D) [2]; [6]) | IC50 (KRAS G12D; [7]) | IC50 (KRAS WT; [8]) | IC50 (KRAS G12S; [9]) | IC50 (NRAS G12C; [10]) | IC50 (KRAS G13D; [11]) | IC50 (KRAS G12C; [14]) | EC50 (AsPC-1 (K-Ras G12D) [1]; ASPC1, read-out: pERK EC50) | IC50 (NCI-H358 (K-Ras G12C); [15]) | IC50 (AsPC-1 (K-Ras G12D) [2]; [16]) | IC50 (KRAS G12D; [17]) | IC50 (KRAS WT; [18]) | IC50 (KRAS G12S; [19]) | IC50 (NRAS G12C; [20]) | IC50 (KRAS G13D; [21]) | IC50 (KRAS G12V; [22]) | IC50 (KRAS G13C; [23]) | further results |
| --- | --- | --- | --- | --- | --- | --- | --- | --- | --- | --- | --- | --- | --- | --- | --- | --- | --- | --- | --- | --- | --- |
| CCn1c(-c2cccnc2[C@H](C)OC)c2c3cc(ccc31)-c1cc(O)cc(c1)C[C@H](NC(=O)[C@H](C1CCCC1)N(C)C(=O)[C@H]1CCN(C[C@H]3CN3)C1=O)C(=O)N1CCC[C@H](N1)C(=O)OCC(C)(C)C2 [Example 58] | < 10 nM | < 5000 nM | < 10 nM | 100 to 1000 nM | 100 to 1000 nM | 10 to 100 nM | 10 to 100 nM | < 10 nM | 10 to 100 nM |  |  |  |  |  |  |  |  |  |  |  | IC50 (KRAS G12V; [12]): 10 to 100 nM; IC50 (KRAS G13C; [13]): 10 to 100 nM |
| CCn1c(-c2cccnc2[C@H](C)OC)c2c3cc(ccc31)-c1cc(O)cc(c1)C[C@H](NC(=O)[C@H](C(C)C)N(C)C(=O)CN(C)C(=O)[C@@H]1N[C@H]1COC)C(=O)N1CCC[C@H](N1)C(=O)OCC(C)(C)C2 [Example 85] |  |  |  |  |  |  |  |  |  | 10 to 100 nM | < 5000 nM | 10 to 100 nM | 1000 to 10000 nM | 100 to 1000 nM | 10 to 100 nM | 10 to 100 nM | 10 to 100 nM | 10 to 100 nM | 10 to 100 nM | < 10 nM |  |
| CCn1c(-c2cccnc2[C@H](C)OC)c2c3cc(ccc31)-c1cc(O)cc(c1)C[C@H](NC(=O)[C@H](C(C)C)N(C)C(=O)CN(C)C(=O)C1CN1CCOC)C(=O)N1CCC[C@H](N1)C(=O)OCC(C)(C)C2 (stereo partly drawn) [Example 90] |  |  |  |  |  |  |  |  |  | < 10 nM | < 5000 nM | < 10 nM | 100 to 1000 nM | 100 to 1000 nM | 10 to 100 nM | 10 to 100 nM | < 10 nM | 100 to 1000 nM | 10 to 100 nM | 10 to 100 nM |  |
| CCn1c(-c2cccnc2[C@H](C)OC)c2c3cc(ccc31)-c1cc(O)cc(c1)C[C@H](NC(=O)[C@H](C1CCCC1)N(C)C(=O)CN(C)C(=O)[C@H]1CN1)C(=O)N1CCC[C@H](N1)C(=O)OCC(C)(C)C2 [Example 95] |  |  |  |  |  |  |  |  |  | < 10 nM | < 5000 nM | < 10 nM | 10 to 100 nM | 10 to 100 nM | 10 to 100 nM | 10 to 100 nM | < 10 nM | 10 to 100 nM | 10 to 100 nM | 10 to 100 nM |  |
| CCn1c(-c2cccnc2[C@H](C)OC)c2c3cc(ccc31)-c1cc(O)cc(c1)C[C@H](NC(=O)[C@H](C(C)C)N(C)C(=O)[C@H](C)N(C)C(=O)[C@H]1CN1)C(=O)N1CCC[C@H](N1)C(=O)OCC(C)(C)C2 [Example 102] |  |  |  |  |  |  |  |  |  | 10 to 100 nM | < 5000 nM | 10 to 100 nM | 100 to 1000 nM | 100 to 1000 nM | 10 to 100 nM | 100 to 1000 nM | 10 to 100 nM | 100 to 1000 nM | 100 to 1000 nM | 10 to 100 nM |  |
| CCn1c(-c2cccnc2[C@H](C)OC)c2c3cc(ccc31)-c1cccc(c1)C[C@H](NC(=O)[C@H](C(C)C)N(C)C(=O)[C@H]1CCN(C(=O)[C@H]3CN3)C1)C(=O)N1CCC[C@H](N1)C(=O)OCC(C)(C)C2 [Example 106] | 10 to 100 nM | < 5000 nM | < 10 nM | 1000 to 10000 nM | 1000 to 10000 nM | 1000 to 10000 nM | 1000 to 10000 nM | 10 to 100 nM | 1000 to 10000 nM |  |  |  |  |  |  |  |  |  |  |  | IC50 (KRAS G12V; [12]): 1000 to 10000 nM; IC50 (KRAS G13C; [13]): 100 to 1000 nM |
